From PMC4589873, “A pain-inducing centipede toxin targets the heat activation machinery of nociceptor TRPV1” (Nature Communications, 2015)

Key:
mTRPV1 = molecular target: T1, mTRPV1 (Mus musculus, UniProt Q704Y3); assay: Whole-cell patch-clamp of mTRPV1 expressed in HEK293 cells; format: cell-based; settings: SEM
T1 construct: expressed in transfected cells; host or cells: HEK-293T
Source text: TRPV1 and TRPV3 chimeras used in this study were generated by the overlapping extension method[54] and confirmed by DNA sequencing, as described previously. Briefly, to generate V1/3S, the primer pairs (5′-[…]-3′and 5′-[…]-3′) were used. To generate other TRPV1/TRPV3 chimeras, the enzyme cutting sites by MluI were made by the primer pair (5′-[…]-3′ and 5′-[…]-3′) for TRPV1 and the primer pair (5′-[…]-3′ and 5′-[…]-3′) for TRPV3. The enzyme cutting sites by PvuI were made by the primer pair (5′-[…]-3′ and 5′-[…]-3′) for TRPV1 and the primer pair (5′-[…]-3′ and 5′-[…]-3′) for TRPV3. The enzyme cutting sites by BsiWI were made by the primer pair (5′-[…]-3′ and 5′-[…]-3′) for TRPV1 and the primer pair (5′-[…]-3′ and 5′-[…]-3′) for TRPV3. V1/3M were generated by enzyme cut and paste between MluI and PvuI sites, while V1/3L were generated by enzyme cut and paste between MluI and BsiWI sites. V1_S1S2_1, V1_S1S2_3 and V1_S1S2_3 were generated as previously reported. All mTRPV1 point mutations were constructed using the QuickChange II XL site-directed mutagenesis kit following the manufacturer’s instruction. These point mutations were sequenced to confirm that appropriate constructs were made. HEK-293T cells were cultured and transiently transfected using Lipofectamine 2,000 (Invitrogen) as previously described.
(§1) As described in details in a previous report, macroscopic currents (in whole-cell, inside-out or outside-out configuration) as well as single-channel currents were recorded using a HEKA EPC10 amplifier with the PatchMaster software (HEKA). Both pipette solution and bath solution contained 130 mM NaCl, 3 mM HEPES and 0.2 mM EDTA (pH 7.2). All recordings were performed at room temperature unless otherwise stated. A holding potential of 0 mV was used from which a testing pulse to +80 mV was applied. Statistical difference was determined using the Student’s t-test, and indicated by ** when reaching the significance level P<0.001.

Trpv1−/− knockout mice = assay: Paw-licking assay in TRPV1 knockout mice; format: in vivo, mouse; settings: intraplantar, 1 μmol per paw
Description: In vivo effects of RhTx on WT mice or Trpv1^−/− mice were examined according to protocols described previously. For the paw-licking assay, pain was induced in mice by intraplantar injection of 0.1% formalin, capsaicin (1 μmol per paw) or RhTx (1 μmol per paw). Each of the testing materials was dissolved in 100 μl saline. Control mice received the same volume of saline. Injected mice were placed individually into open polyvinyl cages (20 × 40 × 15 cm). Time spent licking the injected paw was recorded by a digital video camera during the following 40 min. For recording colonic temperature from WT or Trpv1^−/− mice, mice equipped with a copper-constantan thermocouple were individually placed in open polyvinyl cages. A data logger was connected to the thermocouple. Mice were injected intraperitoneally with 100 μl saline containing capsaicin or RhTx. The dose of capsaicin or RhTx was 10 μmol kg^−1 for these experiments. Mice in the control group received the same volume of saline.

TRPV1 = assay: Cooling of RhTx- or capsaicin-induced channel activation; format: cell-based; settings: RhTx at 1 μM
Description: as §1

[1] = tested on: mTRPV1 point mutants at D602, Y632, T634 and L461; assay: Calcium imaging of mTRPV1 point mutants; format: cell-based, mouse; settings: glycine or alanine mutation; 10 μM RhTx, 10 μM capsaicin
Source text: TRPV1 and TRPV3 chimeras used in this study were generated by the overlapping extension method[54] and confirmed by DNA sequencing, as described previously. Briefly, to generate V1/3S, the primer pairs (5′-[…]-3′and 5′-[…]-3′) were used. To generate other TRPV1/TRPV3 chimeras, the enzyme cutting sites by MluI were made by the primer pair (5′-[…]-3′ and 5′-[…]-3′) for TRPV1 and the primer pair (5′-[…]-3′ and 5′-[…]-3′) for TRPV3. The enzyme cutting sites by PvuI were made by the primer pair (5′-[…]-3′ and 5′-[…]-3′) for TRPV1 and the primer pair (5′-[…]-3′ and 5′-[…]-3′) for TRPV3. The enzyme cutting sites by BsiWI were made by the primer pair (5′-[…]-3′ and 5′-[…]-3′) for TRPV1 and the primer pair (5′-[…]-3′ and 5′-[…]-3′) for TRPV3. […]
Mouse DRG neurons were acutely dissociated and maintained in a short-term primary culture according to procedures as previous descripted. […] Fluorescence images of DRG neurons and HEK-293T cells were acquired with an Olympus IX81 microscope with Hamamatsu C4742 charge-coupled device camera controlled by the MetaFluor Software (Molecular Devices). Fluo-4 was excited by a mercury vapour light source with a 500/20-nm excitation filter, while fluorescence emission was detected with a 535/30-nm emission filter. Fluorescence images were required with automated routines written in MetaMorph software (Molecular Devices) and analysed with Igor Pro (Wavemetrics).

[2] = tested on: mTRPV1 point mutants at D602, Y632, T634 and L461; assay: Whole-cell current of mTRPV1 point mutants; format: cell-based, mouse; settings: glycine or alanine mutation, both at 10 μM, +80 mV
Source text: TRPV1 and TRPV3 chimeras used in this study were generated by the overlapping extension method[54] and confirmed by DNA sequencing, as described previously. Briefly, to generate V1/3S, the primer pairs (5′-[…]-3′and 5′-[…]-3′) were used. To generate other TRPV1/TRPV3 chimeras, the enzyme cutting sites by MluI were made by the primer pair (5′-[…]-3′ and 5′-[…]-3′) for TRPV1 and the primer pair (5′-[…]-3′ and 5′-[…]-3′) for TRPV3. The enzyme cutting sites by PvuI were made by the primer pair (5′-[…]-3′ and 5′-[…]-3′) for TRPV1 and the primer pair (5′-[…]-3′ and 5′-[…]-3′) for TRPV3. The enzyme cutting sites by BsiWI were made by the primer pair (5′-[…]-3′ and 5′-[…]-3′) for TRPV1 and the primer pair (5′-[…]-3′ and 5′-[…]-3′) for TRPV3. V1/3M were generated by enzyme cut and paste between MluI and PvuI sites, while V1/3L were generated by enzyme cut and paste between MluI and BsiWI sites. V1_S1S2_1, V1_S1S2_3 and V1_S1S2_3 were generated as previously reported. […]
As described in details in a previous report, macroscopic currents (in whole-cell, inside-out or outside-out configuration) as well as single-channel currents were recorded using a HEKA EPC10 amplifier with the PatchMaster software (HEKA). […] Statistical difference was determined using the Student’s t-test, and indicated by ** when reaching the significance level P<0.001.

T1 sequence (Q704Y3 whole entry): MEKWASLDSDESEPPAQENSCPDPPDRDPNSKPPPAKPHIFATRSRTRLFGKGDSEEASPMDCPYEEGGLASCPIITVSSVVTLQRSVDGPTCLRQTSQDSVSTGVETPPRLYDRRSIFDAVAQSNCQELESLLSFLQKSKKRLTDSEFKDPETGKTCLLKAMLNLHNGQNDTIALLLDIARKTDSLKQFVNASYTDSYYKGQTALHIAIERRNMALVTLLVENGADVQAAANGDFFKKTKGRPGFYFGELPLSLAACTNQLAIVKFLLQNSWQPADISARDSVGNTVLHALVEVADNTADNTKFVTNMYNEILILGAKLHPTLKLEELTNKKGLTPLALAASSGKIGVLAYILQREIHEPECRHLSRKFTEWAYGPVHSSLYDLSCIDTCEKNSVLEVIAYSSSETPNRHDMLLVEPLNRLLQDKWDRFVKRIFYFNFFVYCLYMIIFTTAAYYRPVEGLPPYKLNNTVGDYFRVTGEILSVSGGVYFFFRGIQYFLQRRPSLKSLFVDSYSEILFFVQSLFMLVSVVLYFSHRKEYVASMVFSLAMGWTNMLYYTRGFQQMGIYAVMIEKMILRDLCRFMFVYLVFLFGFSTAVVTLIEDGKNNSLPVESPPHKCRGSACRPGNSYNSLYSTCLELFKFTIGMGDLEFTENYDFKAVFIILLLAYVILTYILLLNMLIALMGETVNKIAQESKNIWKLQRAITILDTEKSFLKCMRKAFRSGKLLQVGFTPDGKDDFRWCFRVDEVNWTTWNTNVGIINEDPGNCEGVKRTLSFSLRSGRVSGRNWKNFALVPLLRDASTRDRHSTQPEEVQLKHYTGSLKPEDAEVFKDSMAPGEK

COc1cc(CNC(=O)CCCC/C=C/C(C)C)ccc1O [capsaicin, reference compound]
EC50 (mTRPV1): 214 ± 20.6 nM
Hill slope (mTRPV1): 1.36±0.18
pain behaviour (paw licking) in knockout mice (Trpv1−/− knockout mice): ineffective
effect of lowering the experimental temperature on agonist-induced channel activation (TRPV1): could not prevent
agonist-induced intracellular calcium increase in point mutants versus WT channel [1]: sparing
agonist-induced current in point mutants versus WT channel [2]: sparing
